Test results reported in patent publication EP0300675A2, “Method for the improvement of cyclosporine therapy” (MERCK FROSST CANADA INC., priority 1987, dated 1989).

System: cyclosporine A-induced nephrotoxicity
Test: cyclosporine A-induced nephrotoxicity (rise in serum BUN) in SHR rats dosed for 14 days
Assay type: in vivo, female spontaneously hypertensive (SHR) rats
Conditions: for Serum BUN ± S.E.M.: 14 days; for inhibition of the increase in serum BUN: 3 mg/kg/day in saline
Description: All experiments were carried out using female spontaneously hypertensive (SHR) rats, weight range 160-200 gm, obtained from Taconic Farms. […] Four thromboxane antagonists have been studied so far. […] Thromboxane antagonists have been administered as the sodium salt dissolved in saline, the sodium salt dissolved in 0.1% NaHCO₃ or the free acid suspended in 1% Methocel.

[1] = 3 mg/kg/day in saline with cyclosporine A 25 mg/kg/day, Combined experiments
[2] = 3 mg/kg/day in saline with cyclosporine A 25 mg/kg/day, Experiment 1
[3] = second experiment combined together

## O=C(O)CC1CCCc2c1n(Cc1ccc(Cl)cc1)c1ccc(F)cc21 (racemic) [Compound 2, 9-(p-Chlorobenzyl)-6-fluoro-1,2,3,4-tetrahydrocarbazol-1-yl acetic acid]
[1]
  Serum BUN ± S.E.M.: 30.3 ± 2.0 mg/100 ml
[2]
  Serum BUN ± S.E.M.: 24.6 ± 1.7 mg/100 ml
One experiment (Table 2)
  inhibition of the increase in serum BUN: significant inhibition
[3]
  inhibition of the increase in serum BUN: no significant inhibition

## O=C(O)CC1CCCc2c1n(Cc1ccc(Cl)cc1)c1c(F)cc(F)cc21 (single isomer, unassigned; (-)) [Compound 3, (-)-9-(p-Chlorobenzyl)-6,8-difluoro-1,2,3,4-tetrahydrocarbazol-1-yl acetic acid]
3 mg/kg/day, suspension of free acid in 1% Methocel, with cyclosporine A 25 mg/kg/day, Table 4 (two separate experiments)
  Serum BUN ± S.E.M.: 23.2 ± 0.9 mg/100 ml
10 mg/kg/day, suspension of free acid in 1% Methocel, with cyclosporine A 25 mg/kg/day, Table 4 (two separate experiments)
  Serum BUN ± S.E.M.: 24.0 ± 1.1 mg/100 ml
Both doses (3 and 10 mg/kg/day), suspension of the free acid, two separate experiments
  inhibition of the rise in serum BUN: significant inhibition

## CS(=O)(=O)c1ccc(Cn2c3c(c4cc(F)cc(F)c42)CCCC3CC(=O)O)cc1 (single isomer, unassigned; (-)) [Compound 4, (-)-9-(p-Methylsulfonylbenzyl)-6,8-difluoro-1,2,3,4-tetrahydrocarbazol-1-yl acetic acid]
3 mg/kg/day, suspension of free acid in 1% Methocel, with cyclosporine A 25 mg/kg/day, Table 5
  Serum BUN ± S.E.M.: 23.5 ± 1.0 mg/100 ml
10 mg/kg/day, suspension of free acid in 1% Methocel, with cyclosporine A 25 mg/kg/day, Table 5
  Serum BUN ± S.E.M.: 21.9 ± 0.8 mg/100 ml
Both 3 and 10 mg/kg/day, suspension of the free acid
  effect on cyclosporine A-induced rises in serum BUN: effective

## Cc1c(CC(C)(C)C(=O)O)n(Cc2ccc(Cl)cc2)c2ccc(F)cc12 [Compound 1, 3-(1-(4-Chlorobenzyl)-3-methyl-5-fluoroindol-2 yl)-2,2-dimethyl propanoic acid]
3 mg/kg/day in 0.1% NaHCO₃
  inhibition of the increase in serum BUN induced by cyclosporine A: No significant inhibition
3 mg/kg/day in 0.1% NaHCO₃ with cyclosporine A 25 mg/kg/day
  Serum BUN ± S.E.M.: 28.3 ± 2.2 mg/100ml
[1]
  Serum BUN ± S.E.M.: 28.0 ± 1.6 mg/100 ml
[2]
  Serum BUN ± S.E.M.: 24.5 ± 1.1 mg/100 ml
One experiment (Table 2)
  inhibition of the increase in serum BUN: significant inhibition
[3]
  inhibition of the increase in serum BUN: no significant inhibition
10 mg/kg/day in 0.1% NaHCO₃ with cyclosporine A 25 mg/kg/day, 2 separate experiments
  Serum BUN ± S.E.M.: 23.4 ± 0.9 mg/100ml
10 mg/kg/day in 0.1% NaHCO₃, mean of two separate experiments, p < 0.05
  inhibition of the increase in serum BUN induced by cyclosporine A: significant inhibition
